One may read the bioavailability as the share of a dose that reaches the circulation, judged against a reference dose that is usually intravenous. By half-life is commonly meant the time in which the quantity being followed falls by half.

Where two headings read alike, the source gives them in different places.

For data set [1] the following is noted: cited from earlier work.
Data set [2] has as its target T1, ANGIOTENSIN II AT1 receptor (Homo sapiens, UniProt P30556).
T1 sequence (P30556 1-359): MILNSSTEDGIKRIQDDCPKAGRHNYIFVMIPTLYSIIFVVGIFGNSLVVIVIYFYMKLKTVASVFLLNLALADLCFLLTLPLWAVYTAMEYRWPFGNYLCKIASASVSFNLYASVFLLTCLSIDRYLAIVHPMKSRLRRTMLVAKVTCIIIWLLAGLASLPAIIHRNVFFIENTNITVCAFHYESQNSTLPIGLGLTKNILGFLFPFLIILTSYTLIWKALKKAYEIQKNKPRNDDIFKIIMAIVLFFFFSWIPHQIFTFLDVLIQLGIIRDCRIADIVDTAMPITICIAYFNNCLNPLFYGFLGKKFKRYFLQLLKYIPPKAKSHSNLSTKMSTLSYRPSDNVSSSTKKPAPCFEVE
As to conditions: cited from earlier work.

For data set [3] the following is noted: cited from earlier work. This is another data set of the same source.
The subject of data set [4] is pressor effect of Ang II. Description: Pressor effect of Ang II in rats after subcutaneous losartan or losartan incorporated in biodegradable polymer (telemetric recording of arterial pressure). It is filed as in vivo. To be noted: losartan 0.7 mg. The procedure: Male rats weighing (330-350 g) instrumented for telemetric recording of arterial pressure (Data Science System) were anesthetized and submitted to the implantation of […] femoral vein. […] Injections of Ang II were made after 2, 8 and 24 hours and then at intervals of 24 hours, for 15 days.

The test system of data set [5] is pressor effect of Ang II. In words: Pressor effect of Ang II in rats after losartan or losartan included in cyclodextrin (gavage). It is filed as in vivo. To be noted: losartan 0.2 mg/Kg, tested 2, 6, 24 and 48 hours after.
For data set [6] the following is noted: cited from earlier work. This is another data set of the same source.
For data set [7] the following is noted: cited from earlier work. This is another data set of the same source.

As for `CCOc1nc2cccc(C(=O)O)c2n1Cc1ccc(-c2ccccc2-c2nnn[nH]2)cc1` [Candesartan], in data set [1] (in vivo), the bioavailability result was “about 40%” and the half-life is 9 h.
For the molecule `CCCCC(=O)N(Cc1ccc(-c2ccccc2-c2nnn[nH]2)cc1)[C@H](C(=O)O)C(C)C` [Valsartan, 1-oxopentyl-N′[[2′-(1H-tetrazole-5-yl)[1,1′-biphenyl]-4-yl]methyl]-L-vaniline], in data set [1] (in vivo), the half-life was 9 h and the “time to peak of maximum concentration” value is recorded as “about 2 hours”.
Regarding `CCCCC1=NC2(CCCC2)C(=O)N1Cc1ccc(-c2ccccc2-c2nnn[nH]2)cc1` [Irbersartan], the “excreted by the bile” value in data set [1] (in vivo) is given as 80%.
As to `CCCCc1nc(Cl)c(CC(=O)[O-])n1Cc1ccccc1Cl.[Na+]` [S-8307], in data set [2], the “binding / affinity for the Ang II AT1 receptor” value (from here on “binding / affinity”) is “weak binding”.
For `CCCCc1nc(Cl)c(CO)n1Cc1ccc(-c2ccccc2-c2nn[nH]n2)cc1` [Losartan], the solubility result is reported as “soluble” in data set [3] (in alcohol); “slightly soluble” in data set [3] (in common organic solvents, such as acetonitrile and methyl-ethyl-cetone); “soluble” in data set [3] (in water). Besides, the half-life entry in data set [1] (in vivo) is given as “about two”. Moreover, the “excreted as EXP-3174” value in data set [1] (oral dose) is on record as 8%. The “excreted with the losartan” value in data set [1] (oral dose) is reported as 5%. The “duration of blockade of the Ang II effect” value in data set [4] is recorded as “about 8 hours”. For the same molecule, the “duration of blockade of the pressor effect of Ang II” value in data set [5] was “about 8 hours”.
Turning to `CCCCc1nc(Cl)c(CC(=O)[O-])n1Cc1ccccc1[N+](=O)[O-].[Na+]` [S-8308], the “binding / affinity” value in data set [2] is reported as “weak binding”.
Turning to `CCOC(=O)[C@H](C)C[C@@H](C)C(=O)N1c2ccccc2C[C@H]1C(=O)O` [Pentopril], in data set [6], the “stability in the human plasma” value was “highly stable”.
As for `CCCc1nc2c(C)cc(-c3nc4ccccc4n3C)cc2n1Cc1ccc(-c2ccccc2C(=O)O)cc1` [Telmisartan], in data set [1] (in vivo), the bioavailability was 45% and the “excreted by the bile” value was 97%.
Regarding `CCCCc1ncc(/C=C(\Cc2cccs2)C(=O)O)n1Cc1ccc(C(=O)O)cc1` [Eprosartan, (E)-a-[[2-butyl-1-[(4-carboxyphenyl)metyl]-1H-imidazol-5-yl]methylene]-2-thiofenepropanoic acid], in data set [1] (in vivo), the “eliminated through the feces” value is listed as “Approximately 90%” and the “time to peak of maximum concentration” value is given as “about 2 hours”. In addition, in data set [2], the “binding / affinity” value is “high affinity”.
For `CC[C@H](C)[C@H](NC(=O)[C@H](CCC(N)=O)NC(=O)[C@@H]1CCCN1C(=O)[C@H](CCCNC(=N)N)NC(=O)[C@@H]1CCCN1C(=O)[C@H](Cc1c[nH]c2ccccc12)NC(=O)[C@@H]1CCC(=O)N1)C(=O)N1CCC[C@H]1C(=O)N1CCC[C@H]1C(=O)O` [teprotide], the anti-hypertensive action entry in data set [7] (intravenous route) was “has an anti-hypertensive action”; in data set [7] (oral route), “inactive”.

The record behind these values is US7858597B2, “Preparation of formulations of angiotensin II AT1 receptors antagonists for the treatment of arterial hypertension, other cardiovascular illnesses and its complications” (Universidade Federal De Mimas Gerais - UFMG, priority 2001, dated 2010).
